This passage reports remaining activity results from paper doi:10.1101/2024.08.13.607785v1 (biorxiv, 2024).

Where two headings read alike, the source gives them in different places.

Common to all, as to assay: biochemical
Holding throughout (set-up): species or system human cell line lysate

Test [1] concerns the target Serine/threonine-protein kinase BRSK1 ; BRSK1 ; Q8TDC3 (Homo sapiens, UniProt Q8TDC3).
Test [2] addresses Serine/threonine-protein kinase LMTK2 ; LMTK2 ; Q8IWU2 (Homo sapiens, UniProt Q8IWU2).
The target in test [3] is Kinase suppressor of Ras 1 ; KSR1 ; Q8IVT5 (Homo sapiens, UniProt Q8IVT5).
Test [4] has as its target Isoform 1A of Mitogen-activated protein kinase kinase kinase 7 ; MAP3K7 ; O43318-2 (Homo sapiens, UniProt O43318).
Test [5] addresses Mitogen-activated protein kinase kinase kinase 1 ; MAP3K1 ; Q13233 (Homo sapiens, UniProt Q13233).
For test [6], the target named is Isoform Delta 12 of Calcium/calmodulin-dependent protein kinase type I ; CAMK2D ; Q13557-12 (Homo sapiens, UniProt Q13557).
For test [7], the target named is cAMP-dependent protein kinase catalytic subunit beta ; PRKACB ; P22694 (Homo sapiens, UniProt P22694).
Test [8] deals with Microtubule-associated serine/threonine-protein kinase 3 ; MAST3 ; O60307 (Homo sapiens, UniProt O60307).
Test [9] concerns the target Serine/threonine-protein kinase Nek3 ; NEK3 ; P51956 (Homo sapiens, UniProt P51956).
For test [10], the target named is Isoform Beta of cGMP-dependent protein kinase 1 ; PRKG1 ; Q13976-2 (Homo sapiens, UniProt Q13976).
In test [11] the target is Mitogen-activated protein kinase kinase kinase 2 ; MAP3K2 ; Q9Y2U5 (Homo sapiens, UniProt Q9Y2U5).
In test [12] the target is Serine/threonine-protein kinase haspin ; HASPIN ; Q8TF76 (Homo sapiens, UniProt Q8TF76).
Test [13] addresses Tyrosine-protein kinase JAK2 ; JAK2 ; O60674 (Homo sapiens, UniProt O60674).
Test [14] has as its target Mitogen-activated protein kinase 3 ; MAPK3 ; P27361 (Homo sapiens, UniProt P27361).
Test [15] addresses Wee1-like protein kinase ; WEE1 ; P30291 (Homo sapiens, UniProt P30291).
Test [16] concerns the target MAP kinase-activated protein kinase 2 ; MAPKAPK2 ; P49137 (Homo sapiens, UniProt P49137).
Test [17] has as its target Serine/threonine-protein kinase Chk1 ; CHEK1 ; O14757 (Homo sapiens, UniProt O14757).
Test [18] addresses Serine/threonine-protein kinase N1 ; PKN1 ; Q16512 (Homo sapiens, UniProt Q16512).
Test [19] concerns the target Pyridoxal kinase ; PDXK ; O00764 (Homo sapiens, UniProt O00764).
Test [20] has as its target Focal adhesion kinase 1 ; PTK2 ; Q05397 (Homo sapiens, UniProt Q05397).
In test [21] the target is Serine-protein kinase ATM ; ATM ; Q13315 (Homo sapiens, UniProt Q13315).
For test [22], the target named is Isoform 2 of Ribosomal protein S6 kinase alpha-1 ; RPS6KA1 ; Q15418-2 (Homo sapiens, UniProt Q15418).
For test [23], the target named is Non-receptor tyrosine-protein kinase TNK1 ; TNK1 ; Q13470 (Homo sapiens, UniProt Q13470).
Setting [24] is: read-out: BAY-1251152 (10 µM) / %Intensity relative to DMSO.
[25] abbreviates: read-out: BAY-1143572 (10 µM) / %Intensity relative to DMSO.

Non-receptor tyrosine-protein kinase TNK1 ; TNK1 ; Q13470, sequence (Q13470 whole entry): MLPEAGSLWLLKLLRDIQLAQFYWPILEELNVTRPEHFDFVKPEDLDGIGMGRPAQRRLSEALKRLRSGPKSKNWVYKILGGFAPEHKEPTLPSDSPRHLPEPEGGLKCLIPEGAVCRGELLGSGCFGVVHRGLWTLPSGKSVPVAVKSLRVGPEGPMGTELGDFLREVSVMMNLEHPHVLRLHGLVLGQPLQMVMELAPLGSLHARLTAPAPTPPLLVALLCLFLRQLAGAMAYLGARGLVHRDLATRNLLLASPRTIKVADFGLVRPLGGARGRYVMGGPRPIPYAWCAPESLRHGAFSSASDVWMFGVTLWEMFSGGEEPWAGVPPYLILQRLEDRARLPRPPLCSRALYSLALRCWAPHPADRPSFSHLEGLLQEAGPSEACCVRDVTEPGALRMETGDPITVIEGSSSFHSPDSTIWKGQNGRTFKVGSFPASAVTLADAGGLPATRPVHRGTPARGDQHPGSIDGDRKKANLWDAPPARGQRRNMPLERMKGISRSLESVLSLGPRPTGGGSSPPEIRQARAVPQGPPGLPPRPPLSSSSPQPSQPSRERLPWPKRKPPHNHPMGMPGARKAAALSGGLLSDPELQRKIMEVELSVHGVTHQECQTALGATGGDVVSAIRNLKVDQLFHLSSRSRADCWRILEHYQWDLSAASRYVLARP
Wee1-like protein kinase ; WEE1 ; P30291, sequence (P30291 whole entry): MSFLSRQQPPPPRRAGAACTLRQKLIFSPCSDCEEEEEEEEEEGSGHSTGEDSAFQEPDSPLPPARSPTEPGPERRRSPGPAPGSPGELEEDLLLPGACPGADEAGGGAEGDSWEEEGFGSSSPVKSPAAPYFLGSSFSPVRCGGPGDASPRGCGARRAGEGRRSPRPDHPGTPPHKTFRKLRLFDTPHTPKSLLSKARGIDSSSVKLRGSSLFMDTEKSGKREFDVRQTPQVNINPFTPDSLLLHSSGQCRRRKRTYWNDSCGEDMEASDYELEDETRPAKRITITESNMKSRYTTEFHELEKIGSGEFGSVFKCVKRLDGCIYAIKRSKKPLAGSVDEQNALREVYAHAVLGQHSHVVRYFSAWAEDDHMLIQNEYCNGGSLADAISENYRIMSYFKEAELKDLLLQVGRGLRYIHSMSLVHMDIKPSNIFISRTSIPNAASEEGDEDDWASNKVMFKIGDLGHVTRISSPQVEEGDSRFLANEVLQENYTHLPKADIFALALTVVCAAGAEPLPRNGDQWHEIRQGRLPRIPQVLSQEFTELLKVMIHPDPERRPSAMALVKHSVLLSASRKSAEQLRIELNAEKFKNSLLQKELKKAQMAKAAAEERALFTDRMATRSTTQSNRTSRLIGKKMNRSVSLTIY
Serine/threonine-protein kinase LMTK2 ; LMTK2 ; Q8IWU2, sequence (Q8IWU2 whole entry, one chain of several): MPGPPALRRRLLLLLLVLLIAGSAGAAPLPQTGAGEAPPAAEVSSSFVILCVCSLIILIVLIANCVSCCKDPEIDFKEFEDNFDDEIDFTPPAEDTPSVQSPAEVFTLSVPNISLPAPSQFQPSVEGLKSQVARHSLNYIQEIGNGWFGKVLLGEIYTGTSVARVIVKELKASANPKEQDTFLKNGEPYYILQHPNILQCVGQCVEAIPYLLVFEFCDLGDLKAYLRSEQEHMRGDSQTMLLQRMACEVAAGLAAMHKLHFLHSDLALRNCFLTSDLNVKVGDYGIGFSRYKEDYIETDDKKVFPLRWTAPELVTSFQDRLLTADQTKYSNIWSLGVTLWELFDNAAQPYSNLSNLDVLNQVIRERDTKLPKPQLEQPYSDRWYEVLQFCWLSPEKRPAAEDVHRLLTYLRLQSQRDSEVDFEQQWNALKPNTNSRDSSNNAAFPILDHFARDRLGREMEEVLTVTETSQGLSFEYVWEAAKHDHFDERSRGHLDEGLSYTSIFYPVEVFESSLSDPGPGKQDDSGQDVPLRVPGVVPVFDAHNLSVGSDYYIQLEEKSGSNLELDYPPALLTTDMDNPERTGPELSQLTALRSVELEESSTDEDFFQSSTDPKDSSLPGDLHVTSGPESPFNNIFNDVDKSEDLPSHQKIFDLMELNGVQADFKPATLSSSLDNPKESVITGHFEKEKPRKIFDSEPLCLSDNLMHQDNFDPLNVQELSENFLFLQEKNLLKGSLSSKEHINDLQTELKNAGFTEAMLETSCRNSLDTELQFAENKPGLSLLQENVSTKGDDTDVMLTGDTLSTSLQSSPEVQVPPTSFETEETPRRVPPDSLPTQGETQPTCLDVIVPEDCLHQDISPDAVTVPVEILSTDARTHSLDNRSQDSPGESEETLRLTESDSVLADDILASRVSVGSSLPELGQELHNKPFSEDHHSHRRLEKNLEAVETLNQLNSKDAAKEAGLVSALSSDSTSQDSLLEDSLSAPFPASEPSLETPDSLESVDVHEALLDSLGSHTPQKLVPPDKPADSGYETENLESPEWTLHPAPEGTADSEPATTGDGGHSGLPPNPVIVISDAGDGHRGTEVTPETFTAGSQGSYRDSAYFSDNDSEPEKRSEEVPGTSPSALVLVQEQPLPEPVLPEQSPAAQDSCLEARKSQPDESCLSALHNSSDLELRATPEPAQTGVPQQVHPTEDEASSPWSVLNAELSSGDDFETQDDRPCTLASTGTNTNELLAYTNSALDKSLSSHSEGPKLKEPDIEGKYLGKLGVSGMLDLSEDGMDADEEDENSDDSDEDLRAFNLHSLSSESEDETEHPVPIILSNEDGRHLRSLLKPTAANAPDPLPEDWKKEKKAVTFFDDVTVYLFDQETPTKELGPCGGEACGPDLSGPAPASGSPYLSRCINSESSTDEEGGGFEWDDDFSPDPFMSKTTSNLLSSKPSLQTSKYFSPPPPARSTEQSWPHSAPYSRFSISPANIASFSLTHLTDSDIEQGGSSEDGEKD
Pyridoxal kinase ; PDXK ; O00764, sequence (O00764 whole entry): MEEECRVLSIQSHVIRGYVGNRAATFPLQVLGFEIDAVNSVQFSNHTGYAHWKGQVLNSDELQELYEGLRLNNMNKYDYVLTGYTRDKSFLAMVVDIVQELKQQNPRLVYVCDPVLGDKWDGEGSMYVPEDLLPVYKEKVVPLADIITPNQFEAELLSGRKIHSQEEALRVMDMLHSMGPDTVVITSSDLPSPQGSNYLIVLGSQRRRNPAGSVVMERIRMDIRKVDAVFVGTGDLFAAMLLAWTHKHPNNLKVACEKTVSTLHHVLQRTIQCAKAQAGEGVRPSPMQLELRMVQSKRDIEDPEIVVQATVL
Serine/threonine-protein kinase Chk1 ; CHEK1 ; O14757, sequence (O14757 whole entry, one chain of several): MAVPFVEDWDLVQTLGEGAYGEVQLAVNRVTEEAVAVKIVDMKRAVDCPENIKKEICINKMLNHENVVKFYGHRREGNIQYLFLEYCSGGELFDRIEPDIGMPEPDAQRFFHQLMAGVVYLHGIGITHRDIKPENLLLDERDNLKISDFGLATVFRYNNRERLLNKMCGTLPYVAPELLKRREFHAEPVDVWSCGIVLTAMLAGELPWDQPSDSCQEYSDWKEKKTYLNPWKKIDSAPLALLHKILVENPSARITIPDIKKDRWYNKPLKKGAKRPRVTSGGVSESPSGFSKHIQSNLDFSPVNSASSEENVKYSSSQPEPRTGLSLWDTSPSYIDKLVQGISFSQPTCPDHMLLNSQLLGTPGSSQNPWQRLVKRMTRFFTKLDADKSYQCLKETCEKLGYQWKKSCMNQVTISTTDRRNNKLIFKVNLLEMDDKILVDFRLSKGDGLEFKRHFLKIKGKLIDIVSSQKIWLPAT
Microtubule-associated serine/threonine-protein kinase 3 ; MAST3 ; O60307, sequence (O60307 whole entry, one chain of several): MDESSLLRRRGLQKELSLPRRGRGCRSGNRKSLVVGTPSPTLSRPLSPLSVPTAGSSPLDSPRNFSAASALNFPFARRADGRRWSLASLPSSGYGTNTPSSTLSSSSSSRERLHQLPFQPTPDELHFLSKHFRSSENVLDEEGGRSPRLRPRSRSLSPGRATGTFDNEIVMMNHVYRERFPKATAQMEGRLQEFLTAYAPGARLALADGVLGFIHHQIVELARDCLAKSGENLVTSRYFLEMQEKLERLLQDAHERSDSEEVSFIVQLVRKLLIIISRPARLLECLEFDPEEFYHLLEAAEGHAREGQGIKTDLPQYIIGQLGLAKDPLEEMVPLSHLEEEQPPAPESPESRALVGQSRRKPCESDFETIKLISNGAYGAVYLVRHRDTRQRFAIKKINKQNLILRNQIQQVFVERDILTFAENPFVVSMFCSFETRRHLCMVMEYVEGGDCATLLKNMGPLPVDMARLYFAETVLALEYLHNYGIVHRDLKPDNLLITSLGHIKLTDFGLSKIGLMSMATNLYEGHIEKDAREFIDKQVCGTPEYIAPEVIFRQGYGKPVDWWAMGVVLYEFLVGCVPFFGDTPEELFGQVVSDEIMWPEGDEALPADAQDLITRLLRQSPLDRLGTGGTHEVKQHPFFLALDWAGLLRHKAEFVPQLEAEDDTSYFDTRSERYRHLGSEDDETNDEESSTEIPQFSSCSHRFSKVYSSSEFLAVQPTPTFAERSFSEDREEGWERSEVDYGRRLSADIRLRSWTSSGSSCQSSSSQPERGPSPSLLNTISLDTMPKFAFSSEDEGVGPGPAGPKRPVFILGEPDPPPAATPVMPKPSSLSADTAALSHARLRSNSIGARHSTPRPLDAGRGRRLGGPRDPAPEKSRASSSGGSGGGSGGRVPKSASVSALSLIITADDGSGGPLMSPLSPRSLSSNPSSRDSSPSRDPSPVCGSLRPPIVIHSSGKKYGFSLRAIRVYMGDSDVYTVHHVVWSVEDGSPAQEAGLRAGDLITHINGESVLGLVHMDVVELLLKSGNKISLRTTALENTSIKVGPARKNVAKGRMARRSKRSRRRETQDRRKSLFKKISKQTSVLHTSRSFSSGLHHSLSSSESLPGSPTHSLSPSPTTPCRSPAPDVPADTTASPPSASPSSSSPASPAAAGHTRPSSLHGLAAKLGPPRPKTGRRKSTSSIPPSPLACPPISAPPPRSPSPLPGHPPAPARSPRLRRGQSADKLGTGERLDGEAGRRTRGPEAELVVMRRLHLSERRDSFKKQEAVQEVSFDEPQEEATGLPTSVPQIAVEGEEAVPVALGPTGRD

With `COc1cc(F)ccc1-c1cc(Nc2cc(CS(C)(=N)=O)ccn2)ncc1F` (stereo not shown) [BAY-1251152], the remaining activity at 10 µM is 96% in [1] (setting [24]); 126% in test [2] (setting [24]); 146% in [3] (setting [24]); 113% in test [4] (setting [24]); 82.4% in [5] (setting [24]); 106% in [6] (setting [24]). Further, the remaining activity at 10 µM amounted to 105% in [7] (setting [24]); 82.9% in test [8] (setting [24]); 112% in [9] (setting [24]); 117% in test [10] (setting [24]); 103% in test [11] (setting [24]); 68.5% in [12] (setting [24]). The remaining activity at 10 µM in [13] (setting [24]) worked out at 95.9%; in test [14] (setting [24]), 96.8%; in test [15] (setting [24]) it was 102%; in test [16] (setting [24]) it was 119%; in test [17] (setting [24]), 110%; in test [18] (setting [24]), 137%. In addition, the remaining activity at 10 µM in [19] (setting [24]) amounted to 119%; in test [20] (setting [24]) it was 99.3%; in test [21] (setting [24]), 115%; in [22] (setting [24]), 108%; in [23] (setting [24]), 109%.
`COc1cc(F)ccc1-c1ncnc(Nc2cccc(C[S@](C)(=N)=O)c2)n1` [BAY-1143572]: the remaining activity at 10 µM came to 95.3% in test [1] (setting [25]); 128% in [2] (setting [25]); 131% in test [3] (setting [25]); 116% in test [4] (setting [25]); 73.3% in [5] (setting [25]); 124% in test [6] (setting [25]). Also, the remaining activity at 10 µM in test [7] (setting [25]) was 111%; in [8] (setting [25]), 79.4%; in [9] (setting [25]), 88.7%; in test [10] (setting [25]), 130%; in [11] (setting [25]) it was 106%; in test [12] (setting [25]), 75.8%. Also, the remaining activity at 10 µM in test [13] (setting [25]) came to 95.1%; in [14] (setting [25]), 104%; in test [15] (setting [25]), 101%; in [16] (setting [25]), 128%; in test [17] (setting [25]), 106%; in test [18] (setting [25]), 156%. The remaining activity at 10 µM in test [19] (setting [25]) stood at 139%; in test [20] (setting [25]), 102%; in test [21] (setting [25]), 110%; in [22] (setting [25]) it was 116%; in test [23] (setting [25]) it was 113%.
